Results published in US20240058464A1 (Fortis Therapeutics, Inc., priority 2021, published 2024).

Experiments:
CD46 expression [1] = experiment: CD46 expression by RNA-sequencing in paired tumor biopsies before and after therapy; conditions: paired biopsies; for CD46 expression, Post-Treatment Biopsy / CD46 expression, Pre-Treatment Biopsy: RNA-seq log2-transformed counts;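 on all read-outs here: FFPE human tumor biopsies, exome-capture RNA-seq, reads aligned to GRCh37, counts normalized for GC content, length and depth, summed per gene, log2-transformed, samples paired before versus after therapy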
CD46 expression [2] = experiment: CD46 expression by RNA-sequencing in unpaired pre-treatment and post-treatment tumor biopsies; assay type: in vivo, human; conditions: for CD46 expression Post: post-treatment biopsies
[3] = Glioblastoma, Post minus Pre, unpaired biopsies, log2-transformed counts
[4] = Glioblastoma, post- vs pre-treatment unpaired biopsies
[5] = Glioblastoma, unpaired, RNA-seq log2-transformed normalized counts
[6] = Breast Cancer, Post minus Pre, unpaired biopsies, log2-transformed counts
[7] = Breast Cancer, post- vs pre-treatment unpaired biopsies
[8] = Breast Cancer, unpaired, RNA-seq log2-transformed normalized counts
[9] = Non-Small Cell Lung Cancer, Post minus Pre, unpaired biopsies, log2-transformed counts
[10] = Non-Small Cell Lung Cancer, post- vs pre-treatment unpaired biopsies
[11] = Non-Small Cell Lung Cancer, unpaired, RNA-seq log2-transformed normalized counts
[12] = Colorectal Cancer, Post minus Pre, unpaired biopsies, log2-transformed counts
[13] = Colorectal Cancer, post- vs pre-treatment unpaired biopsies
[14] = Colorectal Cancer, unpaired, RNA-seq log2-transformed normalized counts
[15] = Clear Cell Renal Cell Carcinoma, Post minus Pre, unpaired biopsies, log2-transformed counts
[16] = Clear Cell Renal Cell Carcinoma, post- vs pre-treatment unpaired biopsies
[17] = Clear Cell Renal Cell Carcinoma, unpaired, RNA-seq log2-transformed normalized counts
[18] = Melanoma, Post minus Pre, unpaired biopsies, log2-transformed counts
[19] = Melanoma, post- vs pre-treatment unpaired biopsies
[20] = Melanoma, unpaired, RNA-seq log2-transformed normalized counts

Cn1nnc2c(C(N)=O)ncn2c1=O [temozolomide]
CD46 expression diff (post minus pre) (CD46 expression [1]; Glioblastoma): 0.04 | Percent Change in CD46 expression (CD46 expression [1]; Glioblastoma): 0.8% | CD46 expression, Post-Treatment Biopsy (CD46 expression [1]; Glioblastoma): 4.80 | CD46 expression diff (CD46 expression [2]; Endocrine Tumor, Post minus Pre, unpaired biopsies, log2-transformed counts): −0.04 | CD46 expression Percentage change (CD46 expression [2]; Endocrine Tumor, post- vs pre-treatment unpaired biopsies): −0.8% | CD46 expression Post (CD46 expression [2]; Endocrine Tumor, unpaired, RNA-seq log2-transformed normalized counts): 5.52 | CD46 expression diff (CD46 expression [2]; [3]): 0.08 | CD46 expression Percentage change (CD46 expression [2]; [4]): 1.6% | CD46 expression Post (CD46 expression [2]; [5]): 4.85

atezolizumab
CD46 expression diff (post minus pre) (CD46 expression [1]; Breast Cancer): −0.14 | Percent Change in CD46 expression (CD46 expression [1]; Breast Cancer): −2.4% | CD46 expression, Post-Treatment Biopsy (CD46 expression [1]; Breast Cancer): 5.99 | CD46 expression, Pre-Treatment Biopsy (CD46 expression [1]; Breast Cancer): 6.14 | CD46 expression diff (CD46 expression [2]; [6]): 0.07 | CD46 expression Percentage change (CD46 expression [2]; [7]): 1.3% | CD46 expression Post (CD46 expression [2]; [8]): 6.00 | CD46 expression diff (CD46 expression [2]; [9]): 0.00 | CD46 expression Percentage change (CD46 expression [2]; [10]): −0.1% | CD46 expression Post (CD46 expression [2]; [11]): 6.04

bevacizumab
CD46 expression diff (post minus pre) (CD46 expression [1]; Colorectal Cancer): 0.08 | Percent Change in CD46 expression (CD46 expression [1]; Colorectal Cancer): 1.3% | CD46 expression, Post-Treatment Biopsy (CD46 expression [1]; Colorectal Cancer): 6.33 | CD46 expression, Pre-Treatment Biopsy (CD46 expression [1]; Colorectal Cancer): 6.25 | CD46 expression diff (post minus pre) (CD46 expression [1]; Glioblastoma): 0.06 | Percent Change in CD46 expression (CD46 expression [1]; Glioblastoma): 1.3% | CD46 expression, Post-Treatment Biopsy (CD46 expression [1]; Glioblastoma): 4.64 | CD46 expression, Pre-Treatment Biopsy (CD46 expression [1]; Glioblastoma): 4.58 | CD46 expression diff (post minus pre) (CD46 expression [1]; Ovarian Cancer): −0.11 | Percent Change in CD46 expression (CD46 expression [1]; Ovarian Cancer): −1.9% | CD46 expression, Post-Treatment Biopsy (CD46 expression [1]; Ovarian Cancer): 5.54 | CD46 expression, Pre-Treatment Biopsy (CD46 expression [1]; Ovarian Cancer): 5.65 | CD46 expression diff (CD46 expression [2]; [6]): 0.33 | CD46 expression Percentage change (CD46 expression [2]; [7]): 5.4% | CD46 expression Post (CD46 expression [2]; [8]): 6.34 | CD46 expression diff (CD46 expression [2]; [12]): 0.11 | CD46 expression Percentage change (CD46 expression [2]; [13]): 1.7% | CD46 expression Post (CD46 expression [2]; [14]): 6.53 | CD46 expression diff (CD46 expression [2]; Endometrial Cancer, post minus pre, unpaired biopsies): −0.26 | CD46 expression Percentage change (CD46 expression [2]; Endometrial Cancer, post vs pre, unpaired biopsies): −4.4% | CD46 expression Post (CD46 expression [2]; Endometrial Cancer, log2-transformed RNA-seq counts): 5.56 | CD46 expression Pre (CD46 expression [2]; Endometrial Cancer, pre-treatment biopsies, log2-transformed RNA-seq counts): 5.81 | CD46 expression diff (CD46 expression [2]; [3]): −0.02 | CD46 expression Percentage change (CD46 expression [2]; [4]): −0.4% | CD46 expression Post (CD46 expression [2]; [5]): 4.79 | CD46 expression diff (CD46 expression [2]; [9]): −0.11 | CD46 expression Percentage change (CD46 expression [2]; [10]): −1.8% | CD46 expression Post (CD46 expression [2]; [11]): 6.25 | CD46 expression diff (CD46 expression [2]; Ovarian Cancer, Post minus Pre, unpaired biopsies, log2-transformed counts): 0.03 | CD46 expression Percentage change (CD46 expression [2]; Ovarian Cancer, post- vs pre-treatment unpaired biopsies): 0.5% | CD46 expression Post (CD46 expression [2]; Ovarian Cancer, unpaired, RNA-seq log2-transformed normalized counts): 5.75

durvalumab
CD46 expression diff (post minus pre) (CD46 expression [1]; Non-Small Cell Lung Cancer): 0.00 | Percent Change in CD46 expression (CD46 expression [1]; Non-Small Cell Lung Cancer): 0.0% | CD46 expression, Post-Treatment Biopsy (CD46 expression [1]; Non-Small Cell Lung Cancer): 5.95 | CD46 expression, Pre-Treatment Biopsy (CD46 expression [1]; Non-Small Cell Lung Cancer): 5.95 | CD46 expression diff (CD46 expression [2]; [9]): −0.03 | CD46 expression Percentage change (CD46 expression [2]; [10]): −0.5% | CD46 expression Post (CD46 expression [2]; [11]): 6.04

ipilimumab
CD46 expression diff (post minus pre) (CD46 expression [1]; Melanoma): −0.06 | Percent Change in CD46 expression (CD46 expression [1]; Melanoma): −1.1% | CD46 expression, Post-Treatment Biopsy (CD46 expression [1]; Melanoma): 5.26 | CD46 expression, Pre-Treatment Biopsy (CD46 expression [1]; Melanoma): 5.31 | CD46 expression diff (CD46 expression [2]; [15]): −0.08 | CD46 expression Percentage change (CD46 expression [2]; [16]): −1.4% | CD46 expression Post (CD46 expression [2]; [17]): 5.48 | CD46 expression diff (CD46 expression [2]; [18]): −0.06 | CD46 expression Percentage change (CD46 expression [2]; [19]): −1.1% | CD46 expression Post (CD46 expression [2]; [20]): 5.30

nivolumab
CD46 expression diff (post minus pre) (CD46 expression [1]; Melanoma): −0.04 | Percent Change in CD46 expression (CD46 expression [1]; Melanoma): −0.7% | CD46 expression, Post-Treatment Biopsy (CD46 expression [1]; Melanoma): 5.26 | CD46 expression, Pre-Treatment Biopsy (CD46 expression [1]; Melanoma): 5.29 | CD46 expression diff (CD46 expression [2]; [15]): −0.06 | CD46 expression Percentage change (CD46 expression [2]; [16]): −1.1% | CD46 expression Post (CD46 expression [2]; [17]): 5.50 | CD46 expression diff (CD46 expression [2]; [18]): −0.02 | CD46 expression Percentage change (CD46 expression [2]; [19]): −0.5% | CD46 expression Post (CD46 expression [2]; [20]): 5.31 | CD46 expression diff (CD46 expression [2]; [9]): −0.09 | CD46 expression Percentage change (CD46 expression [2]; [10]): −1.5% | CD46 expression Post (CD46 expression [2]; [11]): 6.11

panitumumab
CD46 expression diff (post minus pre) (CD46 expression [1]; Colorectal Cancer): −0.10 | Percent Change in CD46 expression (CD46 expression [1]; Colorectal Cancer): −1.4% | CD46 expression, Post-Treatment Biopsy (CD46 expression [1]; Colorectal Cancer): 6.62 | CD46 expression, Pre-Treatment Biopsy (CD46 expression [1]; Colorectal Cancer): 6.71 | CD46 expression diff (CD46 expression [2]; [12]): 0.28 | CD46 expression Percentage change (CD46 expression [2]; [13]): 4.4% | CD46 expression Post (CD46 expression [2]; [14]): 6.64
